Consider two compounds from publication PMC11703214 (bioRxiv, 2024).

Holding throughout (type): cell-based
One experiment deals with G protein pathway. The experiment is described as follows: Luciferase complementation assay. To be noted: ACh 0.1 nM to 100 μM.
A further experiment has as its system β-arrestin pathway. The experiment is described as follows: Tango assay. To be noted: ACh 0.01 nM to 100 μM.
In a further experiment the test system is gACh3.0. The experiment in a line: Fluorescence imaging. To be noted: read-out: EC50 (μM), normalized dose-response curves, HEK293T; n = 3.
Another experiment relates to iAChSnFR. The experiment is described as follows: Fluorescence imaging. The settings on record: read-out: EC50 (μM), normalized dose-response curves, HEK293T; n = 3.

Consider “wild-type human M3R: wild-type human type 3 muscarinic ACh receptor, positive control for downstream coupling”, for which, in the experiment with G protein pathway, the “coupling to G protein pathway” value is recorded as “robust coupling”. For the same compound, the “coupling to β-arrestin pathway” value in the experiment with β-arrestin pathway is “robust coupling”.
For orientation: EC50 means the midpoint of the concentration-response curve. As for `CC(=O)OCC[N+](C)(C)C` [ACh, acetylcholine], the values for the half-maximal effective concentration (EC50) in the experiment with gACh3.0 and in the experiment on iAChSnFR were 2.2 µM and 8.8 µM, respectively.
